Measured values reported in patent US10463644B2, “Uses of sesquiterpene lactone compounds and their derivatives in drugs preparation” (ACCENDATECH, priority 2013, dated 2019).
Read-outs that look alike come from different tables or passages of the source.

Key:
[1] = system: IL-1β secreted by synoviocyte; test: Content of IL-1β in culture supernatant of synoviocyte of RA model rats given test compound; format: in vivo; conditions: rat RA model, dose 30 mg/kg.2d; normal control 0.16 ± 0.034, NaCl 0.49 ± 0.136
Summary of the method: (§1)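 Read-out: TNF-α, PGE2 and IL-1β levels in supernatant from cultured synoviocytes. Cells came from RA model rats treated with compound at 30 mg/kg.2d, and from NaCl-treated and normal control rats.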

[2] = system: normal cells; test: Survival rate of normal cells after test compound is added (flow cytometry, Annexin V-FITC/PI); format: cell-based; conditions: 18 h
Summary of the method: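 Mononuclear cells from fresh or cryopreserved clinical samples, isolated by Ficoll gradient and held in serum-free IMDM (1×10^6/mL), received compound for 18 h. After labelling with marker antibodies (CD34+CD38+ for AML), Annexin V-FITC and PI staining was analysed by flow cytometry.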

[3] = system: cancer cells; test: Survival rate of cancer cells after test compound is added (flow cytometry, Annexin V-FITC/PI, clinical specimen); format: cell-based, patient; conditions: Homo sapiens, 18 h, read-out: Survival rate (%) All cells (Stem cells and ordinary cells)
Summary of the method: (§2)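 Survival was determined in clinical specimens after an 18 h compound treatment, using Annexin V-FITC/PI apoptosis staining and flow cytometry.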

[4] = system: PGE2 secreted by synoviocyte; test: Content of PGE2 in culture supernatant of synoviocyte of RA model rats given test compound; format: in vivo; conditions: rat RA model, dose 30 mg/kg.2d; normal control 8.34 ± 1.29, NaCl 32.44 ± 10.32
Summary of the method: as §1

[5] = system: cancer stem cells; test: Survival rate of cancer stem cells after test compound is added (flow cytometry, Annexin V-FITC/PI, clinical specimen); format: cell-based, patient; conditions: Homo sapiens, 18 h
Summary of the method: as §2

[6] = read-out: Survival rate (%) All cells (Stem cells and ordinary cells)
[7] = read-out: Survival rate (%) Stem cells
[8] = Head and neck squamous cell carcinomas

C=C1C(=O)O[C@@H]2[C@@H]3[C@@H](CCC34CC4)C3(CC[C@@H]12)CC3 [Compound 26]
Content of IL-1β in culture supernatant of synoviocyte (x ± s) [1]: 0.42 ± 0.052 ng/mL | viability at 10 µM [2, 6]: 95% | viability at 10 µM [2, 7]: 94% | viability at 20 µM [2, 6]: 94% | viability at 20 µM [2, 7]: 93% | viability at 10 µM ([3]; AML): 93% | viability at 20 µM ([3]; AML): 85% | viability at 10 µM ([3]; Brain glioma): 88% | viability at 20 µM ([3]; Brain glioma): 85% | viability at 10 µM ([3]; Brain tumor): 89% | viability at 20 µM ([3]; Brain tumor): 85% | viability at 10 µM ([3]; Breast cancer): 89% | viability at 20 µM ([3]; Breast cancer): 86% | viability at 10 µM ([3]; CLL): 93% | viability at 20 µM ([3]; CLL): 85% | viability at 10 µM ([3]; CML): 92% | viability at 20 µM ([3]; CML): 79% | viability at 10 µM ([3]; Children hepatoblastoma): 93% | viability at 20 µM ([3]; Children hepatoblastoma): 86% | viability at 10 µM ([3]; Colon adenocarcinoma): 91% | viability at 20 µM ([3]; Colon adenocarcinoma): 89% | viability at 10 µM ([3]; Colorectal cancer): 87% | viability at 20 µM ([3]; Colorectal cancer): 81% | viability at 10 µM ([3]; Gastric cancer): 88% | viability at 20 µM ([3]; Gastric cancer): 84% | viability at 10 µM ([3]; Gastrointestinal tumor): 93% | viability at 20 µM ([3]; Gastrointestinal tumor): 88% | viability at 10 µM ([3]; Glioma): 94% | viability at 20 µM ([3]; Glioma): 87% | viability at 10 µM [3, 8]: 91% | viability at 20 µM [3, 8]: 88% | viability at 10 µM ([3]; Laryngeal cancer): 88% | viability at 20 µM ([3]; Laryngeal cancer): 82% | viability at 10 µM ([3]; Liver cancer): 89% | viability at 20 µM ([3]; Liver cancer): 87% | viability at 10 µM ([3]; Lung adenocarcinoma): 91% | viability at 20 µM ([3]; Lung adenocarcinoma): 87% | viability at 10 µM ([3]; Lung cancer): 88% | viability at 20 µM ([3]; Lung cancer): 84% | viability at 10 µM ([3]; Malignant melanoma): 88% | viability at 20 µM ([3]; Malignant melanoma): 86% | viability at 10 µM ([3]; Nasopharynx cancer): 94% | viability at 20 µM ([3]; Nasopharynx cancer): 81% | viability at 10 µM ([3]; Ovarian cancer): 91% | viability at 20 µM ([3]; Ovarian cancer): 84% | viability at 10 µM ([3]; Pancreatic cancer): 90% | viability at 20 µM ([3]; Pancreatic cancer): 86% | viability at 10 µM ([3]; Prostate cancer): 92% | viability at 20 µM ([3]; Prostate cancer): 89% | viability at 10 µM ([3]; Retinoblastoma): 91% | viability at 20 µM ([3]; Retinoblastoma): 85% | viability at 10 µM ([3]; Skin cancer): 94% | viability at 20 µM ([3]; Skin cancer): 87% | Content of PGE2 in culture supernatant of synoviocyte (x ± s) [4]: 25.61 ± 5.41 ng/mL | viability at 10 µM ([5]; AML): 86% | viability at 20 µM ([5]; AML): 73% | viability at 10 µM ([5]; Brain glioma): 84% | viability at 20 µM ([5]; Brain glioma): 76% | viability at 10 µM ([5]; Brain tumor): 84% | viability at 20 µM ([5]; Brain tumor): 73% | viability at 10 µM ([5]; Breast cancer): 85% | viability at 20 µM ([5]; Breast cancer): 74% | viability at 10 µM ([5]; CLL): 84% | viability at 20 µM ([5]; CLL): 74% | viability at 10 µM ([5]; CML): 88% | viability at 20 µM ([5]; CML): 76% | viability at 10 µM ([5]; Children hepatoblastoma): 85% | viability at 20 µM ([5]; Children hepatoblastoma): 79% | viability at 10 µM ([5]; Colon adenocarcinoma): 86% | viability at 20 µM ([5]; Colon adenocarcinoma): 81% | viability at 10 µM ([5]; Colorectal cancer): 79% | viability at 20 µM ([5]; Colorectal cancer): 72% | viability at 10 µM ([5]; Gastric cancer): 83% | viability at 20 µM ([5]; Gastric cancer): 77% | viability at 10 µM ([5]; Gastrointestinal tumor): 87% | viability at 20 µM ([5]; Gastrointestinal tumor): 82% | viability at 10 µM ([5]; Glioma): 87% | viability at 20 µM ([5]; Glioma): 76% | viability at 10 µM [5, 8]: 84% | viability at 20 µM [5, 8]: 78% | viability at 10 µM ([5]; Laryngeal cancer): 80% | viability at 20 µM ([5]; Laryngeal cancer): 75% | viability at 10 µM ([5]; Liver cancer): 82% | viability at 20 µM ([5]; Liver cancer): 79% | viability at 10 µM ([5]; Lung adenocarcinoma): 85% | viability at 20 µM ([5]; Lung adenocarcinoma): 82% | viability at 10 µM ([5]; Lung cancer): 82% | viability at 20 µM ([5]; Lung cancer): 78% | viability at 10 µM ([5]; Malignant melanoma): 82% | viability at 20 µM ([5]; Malignant melanoma): 76% | viability at 10 µM ([5]; Nasopharynx cancer): 85% | viability at 20 µM ([5]; Nasopharynx cancer): 74% | viability at 10 µM ([5]; Ovarian cancer): 86% | viability at 20 µM ([5]; Ovarian cancer): 75% | viability at 10 µM ([5]; Pancreatic cancer): 86% | viability at 20 µM ([5]; Pancreatic cancer): 77% | viability at 10 µM ([5]; Prostate cancer): 86% | viability at 20 µM ([5]; Prostate cancer): 77% | viability at 10 µM ([5]; Retinoblastoma): 82% | viability at 20 µM ([5]; Retinoblastoma): 74% | viability at 10 µM ([5]; Skin cancer): 86% | viability at 20 µM ([5]; Skin cancer): 75%
